# Source: patent publication US20240067662A1, “KRAS INHIBITORS” (Bristol-Myers Squibb Company, priority 2022, published 2024)
# Target: GMPPNP-loaded KRAS G12C (Homo sapiens, UniProt P01116, G12C)
# Assay: KRAS G12C RAF Disruption Assay (HTRF)
# Type: biochemical
# Details: recombinant GMPPNP-loaded KRAS G12C (5 nM), 20 min with compound; GST-RAF1 RBD (9 nM); HTRF signal; read-out: KRASG12C RAF Disruption Assay (IC50)
# Method: KRAS^G12C RAF Disruption Assay
# This is a functional assay that measures activity of compounds against KRAS-G12C^(ON), i.e., the active form of KRAS G12C. Recombinant GMPPNP-loaded KRAS G12C (5 nM) was treated with compound at room temperature for 20 minutes in assay buffer (50 mM Tris pH 7.5, 100 mM NaCl, 1 mM MgCl2, 1 mM DTT, 100ug/ml BSA). Recombinant GST-RAF1 RBD (9 nM) was added, and the reaction mixture was incubated for 20 minutes. SA-Tb (0.25 nM) was added, and the reaction mixture was incubated for 3 hours. HTRF signal was measured (PerkinElmer Envision), the signal ratio (λem 520/λem 495) was calculated, and IC50 values were calculated from the dose-response curve.
row,IC50 [nM],Molecule
1,350,"C#Cc1c(F)ccc2cc(O)cc(-c3ncc4c(N5C[C@H]6CC[C@@H](C5)N6C(=O)/C(F)=C/c5ccc(Br)cn5)nc(OC[C@@]56CCCN5C[C@H](F)C6)nc4c3F)c12 [Compound 9, (Z)-3-(5-bromopyridin-2-yl)-1-((1R, 5S)-3-(7-(8-ethynyl-7-fluoro-3-hydroxynaphthalen-1-yl)-8-fluoro-2-(((2R, 7aS)-2-fluorotetrahydro-1H-pyrrolizin-7a(5H)-yl)methoxy)pyrido[4,3-d]pyrimidin-4-yl)-3,8-diazabicyclo[3.2.1]octan-8-yl)-2-fluoroprop-2-en-1-one]"
2,14,"C#Cc1cccc2cccc(-c3ncc4c(N(C)[C@@H]5CCN(C(=O)/C(F)=C/c6ccccn6)C5)nc(OC[C@@]56CCCN5C[C@H](F)C6)nc4c3F)c12 [Compound 115, (Z)-1-((R)-3-((7-(8-ethynylnaphthalen-1-yl)-8-fluoro-2-(((2R, 7aS)-2-fluorotetrahydro-1H-pyrrolizin-7a(5H)-yl)methoxy)pyrido[4,3-d]pyrimidin-4-yl)(methyl)amino)pyrrolidin-1-yl)-2-fluoro-3-(pyridin-2-yl)prop-2-en-1-one]"
3,300,"N#CC[C@H]1CN(c2nc(OC[C@@]34CCCN3C[C@H](F)C4)nc3c(F)c(N4CCOc5cccc(F)c54)ncc23)CCN1C(=O)/C(F)=C/c1nccs1 [Example 61, 2-((S)-1-((Z)-2-fluoro-3-(thiazol-2-yl)acryloyl)-4-(8-fluoro-7-(5-fluoro-2,3-dihydro-4H-benzo[b][1,4]oxazin-4-yl)-2-(((2R, 7aS)-2-fluorotetrahydro-1H-pyrrolizin-7a(5H)-yl)methoxy)pyrido[4,3-d]pyrimidin-4-yl)piperazin-2-yl)acetonitrile]"
4,9,"C#Cc1c(F)ccc2cccc(-c3ncc4c(N(C)[C@@H]5CCN(C(=O)/C(F)=C/c6ccccn6)C5)nc(OC[C@@]56CCCN5C[C@H](F)C6)nc4c3F)c12 [Compound 117, (Z)-1-((R)-3-((7-(8-ethynyl-7-fluoronaphthalen-1-yl)-8-fluoro-2-(((2R, 7aS)-2-fluorotetrahydro-IH-pyrrolizin-7a(5H)-yl)methoxy)pyrido[4,3-d]pyrimidin-4-yl)(methyl)amino)pyrrolidin-1-yl)-2-fluoro-3-(pyridin-2-yl)prop-2-en-1-one]"
5,16800,"C#Cc1cccc2cccc(-c3ncc4c(N(C)C5CCN(C(=O)/C(F)=C/c6nccs6)CC5)nc(OC[C@@]56CCCN5C[C@H](F)C6)nc4c3F)c12 [Compound 132, (Z)-1-(4-((7-(8-ethynylnaphthalen-1-yl)-8-fluoro-2-(((2R, 7aS)-2-fluorotetrahydro-1H-pyrrolizin-7a(5H)-yl)methoxy)pyrido[4,3-d]pyrimidin-4-yl)(methyl)amino)piperidin-1-yl)-2-fluoro-3-(thiazol-2-yl)prop-2-en-1-one]"
6,37,"C#Cc1c(F)ccc2cccc(-c3ncc4c(N5CCN(C(=O)/C(F)=C/c6ccccn6)C[C@@H]5C)nc(OC[C@@]56CCCN5C[C@H](F)C6)nc4c3F)c12 [Compound 89, (Z)-1-((S)-4-(7-(8-ethynyl-7-fluoronaphthalen-1-yl)-8-fluoro-2-(((2R, 7aS)-2-fluorotetrahydro-1H-pyrrolizin-7a(5H)-yl)methoxy)pyrido[4,3-d]pyrimidin-4-yl)-3-methylpiperazin-1-yl)-2-fluoro-3-(pyridin-2-yl)prop-2-en-1-one]"
7,220,"(Z)-1-(4-(7-(2-amino-7-fluorobenzo[d]thiazol-4-yl)-8-fluoro-2-(((2R, 7aS)-2-fluorotetrahydro-1H-pyrrolizin-7a(5H)-yl)methoxy)pyrido[4,3-d]pyrimidin-4-yl)piperazin-1-yl)-2-fluoro-3-(thiazol-2-yl)prop-2-en-1-one [Example 68]"
8,25,"C#Cc1c(F)ccc2cc(O)cc(-c3ncc4c(N5C[C@H]6CC[C@@H](C5)N6C(=O)/C(F)=C/c5ccncn5)nc(OC[C@@]56CCCN5C[C@H](F)C6)nc4c3F)c12 [Compound 18, (Z)-1-((1R, 5S)-3-(7-(8-ethynyl-7-fluoro-3-hydroxynaphthalen-1-yl)-8-fluoro-2-(((2R, 7aS)-2-fluorotetrahydro-1H-pyrrolizin-7a(5H)-yl)methoxy)pyrido[4,3-d]pyrimidin-4-yl)-3,8-diazabicyclo[3.2.1]octan-8-yl)-2-fluoro-3-(pyrimidin-4-yl)prop-2-en-1-one]"
9,890,"N#Cc1cccc2[nH]cc(-c3ncc4c(N5CCN(C(=O)/C(F)=C/c6ccccn6)CC5)nc(OC[C@@]56CCCN5C[C@H](F)C6)nc4c3F)c12 [Compound 133, 3-(8-fluoro-4-(4-((Z)-2-fluoro-3-(pyridin-2-yl)acryloyl)piperazin-1-yl)-2-(((2R, 7aS)-2-fluorotetrahydro-1H-pyrrolizin-7a(5H)-yl)methoxy)pyrido[4,3-d]pyrimidin-7-yl)-1H-indole-4-carbonitrile]"

# Second part, the molecule before the results:
row,Molecule,IC50 [nM]
1,"C#Cc1cccc2cccc(-c3ncc4c(N5CCN(C(=O)/C(F)=C/c6ccccn6)C[C@@H]5C)nc(OC[C@@]56CCCN5C[C@H](F)C6)nc4c3F)c12 [Example 63, (Z)-1-((S)-4-(7-(8-ethynylnaphthalen-1-yl)-8-fluoro-2-(((2R, 7aS)-2-fluorotetrahydro-1H-pyrrolizin-7a(5H)-yl)methoxy)pyrido[4,3-d]pyrimidin-4-yl)-3-methylpiperazin-1-yl)-2-fluoro-3-(pyridin-2-yl)prop-2-en-1-one]",180
2,"C#Cc1cccc2cccc(-c3ncc4c(N5CCN(C(=O)/C(F)=C/c6ncco6)CC5)nc(OC[C@@]56CCCN5C[C@H](F)C6)nc4c3F)c12 [Compound 124, (Z)-1-(4-(7-(8-ethynylnaphthalen-1-yl)-8-fluoro-2-(((2R, 7aS)-2-fluorotetrahydro-1H-pyrrolizin-7a(5H)-yl)methoxy)pyrido[4,3-d]pyrimidin-4-yl)piperazin-1-yl)-2-fluoro-3-(oxazol-2-yl)prop-2-en-1-one]",540
3,"C#Cc1c(F)ccc2cc(O)cc(-c3ncc4c(N5CCN(C(=O)/C(F)=C/c6ccccn6)C[C@@H]5C)nc(OC[C@@]56CCCN5C[C@H](F)C6)nc4c3F)c12 [Example 65, (Z)-1-((S)-4-(7-(8-ethynyl-7-fluoro-3-hydroxynaphthalen-1-yl)-8-fluoro-2-(((2R, 7aS)-2-fluorotetrahydro-1H-pyrrolizin-7a(5H)-yl)methoxy)pyrido[4,3-d]pyrimidin-4-yl)-3-methylpiperazin-1-yl)-2-fluoro-3-(pyridin-2-yl)prop-2-en-1-one]",4.5
4,"C#Cc1c(F)ccc2cc(O)cc(-c3ncc4c(N5CCN(C(=O)/C(F)=C/c6ncccn6)CC5)nc(OC[C@@]56CCCN5C[C@H](F)C6)nc4c3F)c12 [Example 57, (Z)-1-(4-(7-(8-ethynyl-7-fluoro-3-hydroxynaphthalen-1-yl)-8-fluoro-2-(((2R, 7aS)-2-fluorotetrahydro-1H-pyrrolizin-7a(5H)-yl)methoxy)pyrido[4,3-d]pyrimidin-4-yl)piperazin-1-yl)-2-fluoro-3-(pyrimidin-2-yl)prop-2-en-1-one]",4
5,"C#Cc1c(F)ccc2cccc(-c3ncc4c(N(C)[C@@H]5CCN(C(=O)/C(F)=C/c6nccs6)C5)nc(OC[C@@]56CCCN5C[C@H](F)C6)nc4c3F)c12 [Compound 118, (Z)-1-((R)-3-((7-(8-ethynyl-7-fluoronaphthalen-1-yl)-8-fluoro-2-(((2R, 7aS)-2-fluorotetrahydro-IH-pyrrolizin-7a(5H)-yl)methoxy)pyrido[4,3-d]pyrimidin-4-yl)(methyl)amino)pyrrolidin-1-yl)-2-fluoro-3-(thiazol-2-yl)prop-2-en-1-one]",30
6,"N#Cc1cccc2cccc(-c3ncc4c(N5CCN(C(=O)/C(F)=C/c6nccs6)CC5)nc(OC[C@@]56CCCN5C[C@H](F)C6)nc4c3F)c12 [Example 50, 8-(8-fluoro-4-(4-((Z)-2-fluoro-3-(thiazol-2-yl)acryloyl)piperazin-1-yl)-2-(((2R, 7aS)-2-fluorotetrahydro-1H-pyrrolizin-7a(5H)-yl)methoxy)pyrido[4,3-d]pyrimidin-7yl)-1-naphthonitrile]",840
7,"Cn1ncc2cccc(-c3ncc4c(N5CCN(C(=O)/C(F)=C/c6nccs6)CC5)nc(OC[C@@]56CCCN5C[C@H](F)C6)nc4c3F)c21 [Example 39, (Z)-2-fluoro-1-(4-(8-fluoro-2-(((2R, 7aS)-2-fluorotetrahydro-1H-pyrrolizin-7a(5H)-yl)methoxy)-7-(I-methyl-1H-indazol-7-yl)pyrido[4,3-d]pyrimidin-4-yl)piperazin-1-yl)-3-(thiazol-2-yl)prop-2-en-1-one]",5100
8,"C#Cc1cccc2cccc(-c3ncc4c(N5CCC6(CCN6C(=O)/C(F)=C/c6ccccn6)C5)nc(OC[C@@]56CCCN5C[C@H](F)C6)nc4c3F)c12 (single isomer, unassigned) [Compound 104]",16000
9,"CN1CCC[C@H]1COc1nc(N2CCN(C(=O)/C(F)=C/c3ncccn3)[C@@H](CC#N)C2)c2cnc(-c3cccc4cccc(Cl)c34)c(F)c2n1 [Compound 20, 2-((S)-4-(7-(8-chloronaphthalen-1-yl)-8-fluoro-2-(((S)-1-methylpyrrolidin-2-yl)methoxy)pyrido[4,3-d]pyrimidin-4-yl)-1-((Z)-2-fluoro-3-(pyrimidin-2-yl)acryloyl)piperazin-2-yl)acetonitrile]",89
10,"N#CC[C@H]1CN(c2nc(OC[C@@]34CCCN3C[C@H](F)C4)nc3c(F)c(-c4cccc(F)c4C(F)(F)F)ncc23)CCN1C(=O)/C(F)=C/c1nccs1 [Example 71, 2-((S)-1-((Z)-2-fluoro-3-(thiazol-2-yl)acryloyl)-4-(8-fluoro-7-(3-fluoro-2-(trifluoromethyl)phenyl)-2-(((2R, 7aS)-2-fluorotetrahydro-1H-pyrrolizin-7a(5H)-yl)methoxy)pyrido[4,3-d]pyrimidin-4-yl)piperazin-2-yl)acetonitrile]",40
